# Experimental data published in patent US6685617B1, “Inhibitors of α4β1 mediated cell adhesion” (Pharmacia & Upjohn Company, priority 1998, dated 2004).
# Where a name gives a salt, the structure may show the parent alone.
# What was measured:
# [1] = biological target: T1, α4β1 integrin (Jurkat T-cell adhesion to IL-1 stimulated endothelial cell monolayers) (Homo sapiens, UniProt P05556+P13612); test: Jurkat-endothelial cell adhesion assay (Jurkat EC); assay type: cell-based; settings: Jurkat cells on IL-1 stimulated human umbilical vein endothelial cells; read-out: JK/EC (Jurkat EC Assay IC50 value range)
# T1 construct: a T-cell line, Jurkat, known to express the α4β1 integrin; host or cells: Jurkat T-cell line
# Method in brief: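 Adhesion was expressed as percent of compound-free fluorescence after 20 min at 37° C (following 5 min settling on ice) of BCECF-loaded Jurkat T cells on washed HUVEC monolayers. The endothelium, passage 6 or lower, had received 0.1 ng/ml recombinant IL-1 for 4 hr at 37° C; compound was premixed with the T cells, typically at 100, 20, 5 and 1.25 μM.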
# [2] = biological target: T2, α4β1 integrin (Jurkat cell adhesion to immobilized CS-1 derived peptide CLHPGEILDVPST) (Homo sapiens, UniProt P05556+P13612); test: Jurkat-CS-1 assay; assay type: cell-based; settings: Jurkat cells on CS-1 peptide coated plates; read-out: JK/CS-1 (Jurkat CS-1 Assay IC50 value range)
# T2 construct: 100 μl of Jurkat cells (2.5×10^6 cells/ml) in DMEM plus BSA; host or cells: Jurkat T-cell line
# Method in brief: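 CS-1 peptide was SPDP-crosslinked onto HSA-coated plates and blocked with BSA. Jurkat cells (2.5×10^6 cells/ml) in DMEM/BSA were mixed with compound, generally at 100, 20, 5 and 1.25 μM, and allowed to adhere for 1 hr at 37° C. Bound cells were fixed, stained with toluidine blue and quantified by OD590.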
# T1 sequence (P13612 34-1032): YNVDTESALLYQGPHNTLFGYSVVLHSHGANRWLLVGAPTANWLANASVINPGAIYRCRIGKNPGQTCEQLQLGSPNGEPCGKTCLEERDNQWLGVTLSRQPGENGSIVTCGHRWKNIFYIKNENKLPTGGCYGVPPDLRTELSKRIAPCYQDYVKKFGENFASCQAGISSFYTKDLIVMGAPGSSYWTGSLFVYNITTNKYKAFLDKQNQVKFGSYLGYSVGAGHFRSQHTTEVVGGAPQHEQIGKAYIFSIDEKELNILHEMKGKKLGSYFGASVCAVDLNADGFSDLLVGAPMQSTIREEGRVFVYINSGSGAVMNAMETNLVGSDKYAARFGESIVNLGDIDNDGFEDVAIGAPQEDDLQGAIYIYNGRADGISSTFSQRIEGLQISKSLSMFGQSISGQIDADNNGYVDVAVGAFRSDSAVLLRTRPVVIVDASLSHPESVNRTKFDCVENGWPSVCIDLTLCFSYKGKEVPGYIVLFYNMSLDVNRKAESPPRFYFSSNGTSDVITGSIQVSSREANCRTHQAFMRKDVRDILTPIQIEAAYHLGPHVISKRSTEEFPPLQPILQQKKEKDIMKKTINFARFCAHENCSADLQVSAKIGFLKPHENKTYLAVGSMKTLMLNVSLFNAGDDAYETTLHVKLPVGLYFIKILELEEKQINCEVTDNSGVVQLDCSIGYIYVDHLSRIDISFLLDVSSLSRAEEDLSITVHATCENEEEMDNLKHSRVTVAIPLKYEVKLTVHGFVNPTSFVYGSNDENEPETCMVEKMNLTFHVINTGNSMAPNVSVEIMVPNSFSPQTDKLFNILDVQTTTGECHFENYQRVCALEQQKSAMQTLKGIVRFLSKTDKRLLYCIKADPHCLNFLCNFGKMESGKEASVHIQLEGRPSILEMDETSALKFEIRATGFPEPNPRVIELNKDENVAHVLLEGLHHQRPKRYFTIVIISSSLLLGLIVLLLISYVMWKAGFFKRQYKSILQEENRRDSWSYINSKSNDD
# T1 sequence (P05556 21-798): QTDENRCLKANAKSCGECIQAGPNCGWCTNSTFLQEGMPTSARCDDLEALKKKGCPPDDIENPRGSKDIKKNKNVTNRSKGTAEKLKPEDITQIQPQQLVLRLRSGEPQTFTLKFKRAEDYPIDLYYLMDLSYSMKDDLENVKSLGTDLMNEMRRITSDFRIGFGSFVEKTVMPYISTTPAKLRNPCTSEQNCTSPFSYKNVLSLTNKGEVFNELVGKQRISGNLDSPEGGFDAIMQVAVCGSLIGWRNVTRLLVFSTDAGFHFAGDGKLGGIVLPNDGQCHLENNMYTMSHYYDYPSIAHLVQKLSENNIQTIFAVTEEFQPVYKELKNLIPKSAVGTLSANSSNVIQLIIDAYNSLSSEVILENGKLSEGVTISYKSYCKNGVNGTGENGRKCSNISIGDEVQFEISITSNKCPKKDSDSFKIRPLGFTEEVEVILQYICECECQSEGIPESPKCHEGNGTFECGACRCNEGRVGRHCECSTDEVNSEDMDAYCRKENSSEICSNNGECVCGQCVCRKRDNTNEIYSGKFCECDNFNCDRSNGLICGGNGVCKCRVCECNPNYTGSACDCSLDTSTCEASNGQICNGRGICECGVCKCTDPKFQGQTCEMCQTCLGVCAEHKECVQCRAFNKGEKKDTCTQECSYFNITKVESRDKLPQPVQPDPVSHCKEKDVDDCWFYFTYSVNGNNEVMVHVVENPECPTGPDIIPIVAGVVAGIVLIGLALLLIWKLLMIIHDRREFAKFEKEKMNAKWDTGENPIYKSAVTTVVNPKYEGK
# T2 sequence (P13612 34-1032): as the sequence (P13612 34-1032) above
# T2 sequence (P05556 21-798): as the sequence (P05556 21-798) above
Compound,melting point,IC50 [1],IC50 [2]
"C[C@@H](c1ccccc1)N1[C@H](C(=O)O)C[C@H]1C(=O)N[C@@H](Cc1ccc(NC(=O)c2c(Cl)cccc2Cl)cc1)C(=O)O (as salt: salt) [Example 129, [2S-[1(R*),2α,4β(R*)]]-4-[[[1-Carboxy-2-[4-[(2,6-dichlorobenzoyl)amino]phenyl]ethyl]-amino]carbonyl]-1-(1-phenylethyl)-2-azetidinecarboxylic Acid Dilithium Salt]",270 °C,,
O=C(O)/C=C\C(=O)N1CCC[C@H]1C(=O)N[C@@H](Cc1ccc(NC(=O)c2c(Cl)cccc2Cl)cc1)C(=O)O [Example 227],,≥ 1000 nM,50 to 750 nM
O=C(O)/C=C/C(=O)N1CCC[C@H]1C(=O)N[C@@H](Cc1ccc(NC(=O)c2c(Cl)cccc2Cl)cc1)C(=O)O [Example 228],,≥ 1000 nM,50 to 750 nM
COCCC(=O)N1CCC[C@H]1C(=O)N[C@@H](Cc1ccc(NC(=O)c2c(Cl)cccc2Cl)cc1)C(=O)O [Example 229],,≥ 1000 nM,50 to 750 nM
O=C(Nc1ccc(C[C@H](NC(=O)[C@@H]2CCCN2C(=O)C2CCCC(C(=O)O)C2)C(=O)O)cc1)c1c(Cl)cccc1Cl (some centres unmarked) [Example 230],,≥ 1000 nM,50 to 750 nM
CC(=O)CCC(=O)N1CCC[C@H]1C(=O)N[C@@H](Cc1ccc(NC(=O)c2c(Cl)cccc2Cl)cc1)C(=O)O [Example 231],,≥ 1000 nM,50 to 750 nM
O=C(O)CNC(=O)N1CCC[C@H]1C(=O)N[C@@H](Cc1ccc(NC(=O)c2c(Cl)cccc2Cl)cc1)C(=O)O [Example 232],,≥ 1000 nM,≥ 750 nM
COc1ccc(C(=O)N2CCC[C@H]2C(=O)N[C@@H](Cc2ccc(NC(=O)c3c(Cl)cccc3Cl)cc2)C(=O)O)cc1OC [Example 233],,≥ 1000 nM,50 to 750 nM
O=C(O)c1ccccc1C(=O)N1CCC[C@H]1C(=O)N[C@@H](Cc1ccc(NC(=O)c2c(Cl)cccc2Cl)cc1)C(=O)O [Example 234],,≥ 1000 nM,50 to 750 nM
O=C(O)c1cccc(C(=O)N2CCC[C@H]2C(=O)N[C@@H](Cc2ccc(NC(=O)c3c(Cl)cccc3Cl)cc2)C(=O)O)c1 [Example 235],,≥ 1000 nM,50 to 750 nM
O=C(O)c1ccc2cc(C(=O)N3CCC[C@H]3C(=O)N[C@@H](Cc3ccc(NC(=O)c4c(Cl)cccc4Cl)cc3)C(=O)O)ccc2c1 [Example 236],,≥ 1000 nM,≥ 750 nM
O=C(O)c1cncc(C(=O)N2CCC[C@H]2C(=O)N[C@@H](Cc2ccc(NC(=O)c3c(Cl)cccc3Cl)cc2)C(=O)O)c1 [Example 237],,≥ 1000 nM,50 to 750 nM
O=C(O)c1ccc(NC(=O)N2CCC[C@H]2C(=O)N[C@@H](Cc2ccc(NC(=O)c3c(Cl)cccc3Cl)cc2)C(=O)O)cc1 [Example 238],,≥ 1000 nM,50 to 750 nM
O=C(Nc1ccc(C[C@H](NC(=O)[C@@H]2CSCN2C(=O)c2cccnc2)C(=O)O)cc1)c1c(Cl)cccc1Cl [Example 239],,≥ 1000 nM,50 to 750 nM
O=C(O)c1cccc(C(=O)N2CSC[C@H]2C(=O)N[C@@H](Cc2ccc(NC(=O)c3c(Cl)cccc3Cl)cc2)C(=O)O)n1 [Example 240],,≥ 1000 nM,50 to 750 nM
O=C(O)c1ccc(C(=O)N2CSC[C@H]2C(=O)N[C@@H](Cc2ccc(NC(=O)c3c(Cl)cccc3Cl)cc2)C(=O)O)nc1 [Example 241],,≥ 1000 nM,50 to 750 nM
O=C(Nc1ccc(C[C@H](NC(=O)[C@@H]2CSCN2C(=O)c2cc(O)c3ccccc3n2)C(=O)O)cc1)c1c(Cl)cccc1Cl [Example 242],,≥ 1000 nM,50 to 750 nM
O=C(O)/C=C/C(=O)N1CCC[C@@H]1C(=O)N[C@@H](Cc1ccc(NC(=O)c2c(Cl)cccc2Cl)cc1)C(=O)O [Example 255],,≥ 1000 nM,50 to 750 nM
"O=C(O)CCC(=O)N1CCSCCC1C(=O)N[C@@H](Cc1ccc(NC(=O)c2c(Cl)cccc2Cl)cc1)C(=O)O (stereo partly drawn) [Example 267, 5-[[[(1S)-1-Carboxy-2-[4-[(2,6-dichlorobenzoyl)amino]phenyl]ethyl]amino]carbonyl]-tetrahydro-γ-oxo-1,4-thiazepine-4(5H)-butanoic Acid]",,≥ 1000 nM,50 to 750 nM
"[2R-[1(R*),2α,4β(S*)]]-4-[[[1-Carboxy-2-[4-[(2,6-dichlorobenzoyl)amino]phenyl]-ethyl]-amino]carbonyl]-1-(1-phenylethyl)-2-azetidinecarboxylic Acid Dilithium Salt [Example 135]",,250 to 1000 nM,50 to 750 nM
"[S]-3-[[[1-[[4-[(2,6-Dichlorobenzoyl)amino]phenyl]methyl]-2-methoxy-2-oxoethyl]amino]-carbonyl]-1-azetidinecarboxylic Acid 1-(1,1-Dimethyl)ethyl Ester [Example 145]",,≥ 1000 nM,≥ 750 nM

# More lines, now with the values ahead:
melting point,IC50 [1],IC50 [2],Compound
,≥ 1000 nM,50 to 750 nM,O=C(O)CCC(=O)N1CCC[C@H]1C(=O)N[C@@H](Cc1ccc(NC(=O)c2c(Cl)cccc2Cl)cc1)C(=O)O [Example 224]
,≥ 1000 nM,50 to 750 nM,O=C(O)CC1(CC(=O)N2CCC[C@H]2C(=O)N[C@@H](Cc2ccc(NC(=O)c3c(Cl)cccc3Cl)cc2)C(=O)O)CCCC1 [Example 225]
,≥ 1000 nM,50 to 750 nM,CC(C)(CC(=O)O)CC(=O)N1CCC[C@H]1C(=O)N[C@@H](Cc1ccc(NC(=O)c2c(Cl)cccc2Cl)cc1)C(=O)O [Example 226]
,250 to 1000 nM,50 to 750 nM,O=C(O)c1cc(C(=O)N2CSC[C@H]2C(=O)N[C@@H](Cc2ccc(NC(=O)c3c(Cl)cccc3Cl)cc2)C(=O)O)n[nH]1 [Example 243]
,250 to 1000 nM,50 to 750 nM,O=C(Nc1ccc(C[C@H](NC(=O)[C@@H]2CSCN2C(=O)C2NC(C(=O)O)CS2)C(=O)O)cc1)c1c(Cl)cccc1Cl (some centres unmarked) [Example 244]
,≤ 250 nM,50 to 750 nM,O=C(Nc1ccc(C[C@H](NC(=O)[C@@H]2CSCN2C(=O)C2CCCO2)C(=O)O)cc1)c1c(Cl)cccc1Cl (some centres unmarked) [Example 245]
,250 to 1000 nM,50 to 750 nM,O=C(Nc1ccc(C[C@H](NC(=O)[C@@H]2CSCN2C(=O)C2CCOC2)C(=O)O)cc1)c1c(Cl)cccc1Cl (some centres unmarked) [Example 246]
,250 to 1000 nM,50 to 750 nM,O=C(O)/C=C/C(=O)N1CCCC[C@@H]1C(=O)N[C@@H](Cc1ccc(NC(=O)c2c(Cl)cccc2Cl)cc1)C(=O)O [Example 248]
,250 to 1000 nM,50 to 750 nM,COCCC(=O)N1CCCC[C@@H]1C(=O)N[C@@H](Cc1ccc(NC(=O)c2c(Cl)cccc2Cl)cc1)C(=O)O [Example 249]
,≤ 250 nM,≤ 50 nM,O=C(O)c1cccc(C(=O)N2CCCC[C@@H]2C(=O)N[C@@H](Cc2ccc(NC(=O)c3c(Cl)cccc3Cl)cc2)C(=O)O)n1 [Example 251]
,≤ 250 nM,≤ 50 nM,O=C(Nc1ccc(C[C@H](NC(=O)[C@H]2CCCCN2C(=O)c2cccnc2)C(=O)O)cc1)c1c(Cl)cccc1Cl [Example 252]
,≤ 250 nM,50 to 750 nM,O=C(Nc1ccc(C[C@H](NC(=O)[C@H]2CCCCN2C(=O)C2CCCO2)C(=O)O)cc1)c1c(Cl)cccc1Cl (some centres unmarked) [Example 253]
,250 to 1000 nM,50 to 750 nM,O=C(O)CCC(=O)N1CCC[C@@H]1C(=O)N[C@@H](Cc1ccc(NC(=O)c2c(Cl)cccc2Cl)cc1)C(=O)O [Example 254]
,≤ 250 nM,≤ 50 nM,COCCC(=O)N1CCC[C@@H]1C(=O)N[C@@H](Cc1ccc(NC(=O)c2c(Cl)cccc2Cl)cc1)C(=O)O [Example 256]
,250 to 1000 nM,50 to 750 nM,O=C(O)c1cncc(C(=O)N2CCC[C@@H]2C(=O)N[C@@H](Cc2ccc(NC(=O)c3c(Cl)cccc3Cl)cc2)C(=O)O)c1 [Example 257]
,≤ 250 nM,≤ 50 nM,O=C(O)c1cccc(C(=O)N2CCC[C@@H]2C(=O)N[C@@H](Cc2ccc(NC(=O)c3c(Cl)cccc3Cl)cc2)C(=O)O)n1 [Example 258]
,≤ 250 nM,50 to 750 nM,O=C(Nc1ccc(C[C@H](NC(=O)[C@H]2CCCN2C(=O)c2cccnc2)C(=O)O)cc1)c1c(Cl)cccc1Cl [Example 259]
,250 to 1000 nM,50 to 750 nM,O=C(Nc1ccc(C[C@H](NC(=O)[C@H]2CCCN2C(=O)C2CCCO2)C(=O)O)cc1)c1c(Cl)cccc1Cl (some centres unmarked) [Example 260]
,250 to 1000 nM,50 to 750 nM,O=C(O)/C=C/C(=O)N1CSC[C@@H]1C(=O)N[C@@H](Cc1ccc(NC(=O)c2c(Cl)cccc2Cl)cc1)C(=O)O [Example 261]
,≤ 250 nM,≤ 50 nM,COCCC(=O)N1CSC[C@@H]1C(=O)N[C@@H](Cc1ccc(NC(=O)c2c(Cl)cccc2Cl)cc1)C(=O)O [Example 262]
,250 to 1000 nM,50 to 750 nM,O=C(O)c1cncc(C(=O)N2CSC[C@@H]2C(=O)N[C@@H](Cc2ccc(NC(=O)c3c(Cl)cccc3Cl)cc2)C(=O)O)c1 [Example 263]
,≤ 250 nM,≤ 50 nM,O=C(O)c1cccc(C(=O)N2CSC[C@@H]2C(=O)N[C@@H](Cc2ccc(NC(=O)c3c(Cl)cccc3Cl)cc2)C(=O)O)n1 [Example 264]
,≤ 250 nM,≤ 50 nM,O=C(Nc1ccc(C[C@H](NC(=O)[C@H]2CSCN2C(=O)c2cccnc2)C(=O)O)cc1)c1c(Cl)cccc1Cl [Example 265]
,≤ 250 nM,≤ 50 nM,O=C(Nc1ccc(C[C@H](NC(=O)[C@H]2CSCN2C(=O)C2CCCO2)C(=O)O)cc1)c1c(Cl)cccc1Cl (some centres unmarked) [Example 266]
